# Experimental data as given in patent US20080199899A1, “Method For Screening Modulators of Mitochondrial Functioning and New Modulators Obtained” (priority 2002, published 2008).
# Non-standard residues stand in square brackets, D forms with d. Residues, ends and D or L forms follow the SMILES beside them. Phe(ol) = N[C@H](CO)Cc1ccccc1; Aib = CC(C)(N)C(=O)O
# Legend:
# [1] = test system: purified mouse liver mitochondria; assay: Real-time FCM analysis of mitochondrial transmembrane potential (ΔΨm) with JC-1; format: biochemical; conditions: JC-1 loaded mitochondria; 20 μM mClCCP, 30 μM Ca2+ or 5 μM Alamethicin
# Description: (§1) Liver mitochondria were isolated from 3-4 weeks old Balb-c mice (IFFA CREDO, Saint Germain sur l'Arbresle, France). Animals were fasted overnight before being killed by […] dislocation. Liver mitochondria were prepared as described (Jacotot, 2000). All steps were carried out at 4° C. Finally, the organelles were resuspended in ‘swelling buffer’, composed by 200 mM sucrose, 5 mM succinate, 10 mM Tris-MOPS (pH 7.4), 1 mM H3PO4, 2 μM Rotenone, and 10 μM EGTA at pH=7.4. Spectrophotometric and flow cytometric analyses were performed in this buffer. The protein content of isolated mitochondria was determined by the Bradford assay.
# Mitochondrial transmembrane potential (ΔΨm) was assessed by 5,5′,6,6′,-tetracholoro-1,1,3,3′-tetraethylbenzimidazolyl carbocyanine iodide (JC-1, Molecular Probes) incorporation. This potential-sensitive cationic dye accumulates in the mitochdndrial matrix according to the Nernst equation (Reers et al., 1991). JC-1 green fluorescence, associated with JC-1 monomers was collected in the FL-1 channel. JC-1 orange fluorescence, associated with the formation of J-aggregates was collected in the FL-2 channel (585+/−21 nm) (Reers et al, 1991). Both fluorescences were recorded in logarithmic amplifier mode, using the PMT at a voltage adjusted to 907 and 622 respectively. Spectral overlap was avoided by adjusting compensation network as follows: FL1-18.5% FL2 and FL2-25.4% FL1. The JC-1 orange/green fluorescence ratio was calculated with the FCS Assistant software.
# Real-time monitoring of ΔΨm was performed on mitochondrial samples containing 1.5 μg proteins in 400 μl of swelling buffer. […] Then drugs were added to the sample, and ΔΨm variations were recorded for the following 16 minutes. Depolarization curves were drawn as previously indicated for swelling curves; the time scale was divided into discrete periods of 1 minute and the mean of JC-1 orange and JC-1 green fluorescence of the corresponding mitochondrial subsets was calculated by the CellQuest Pro software and exported into the Microsoft Excel software.
# [2] = test system: purified mouse liver mitochondria; assay: Real-time flow cytometry (FCM) analysis of mitochondrial morphology (FSC/SSC) on isolated mitochondria; format: biochemical; conditions: for changes of mitochondrial size (FSC) and structure (SSC) (in words): isolated mitochondria, 1-30 μM Ca2+, 20 μM CCCP, alamethicin 5 μg/ml; for induction of MMP / activity on isolated mitochondria (in words): real time test on isolated mitochondria
# Description: as §1
# Fluorescence-activated flow cytometry was performed using a 3-color FACSCalibur cytometer equipped with a 15 mW air-cooled 488 nm argon laser (Becton Dickinson, San Jose, Calif.). Mitochondria analyses were performed after appropriate settings of the Forward angle light scatter (FSC)—Side angle light scatter (SSC) detectors (see FIG. 1). Discrimination between mitochondria and cellular debris and noise background was performed by an appropriate gating on FSC-SSC scatter plots (FIG. 1) (Radcliff G, Jaroszeski M J 1998 Methods Mol Biol 91:1-24 Basics of flow cytometry). Systematic confirmation of the validity of this gating was obtained by a labeling of mitochondria with the ΔΨm-insensitive mitochondrial dye MitoTracker® Green (MTG, Molecular Probes, Eugene, Oreg.) (Jacotot et al., 2001). Briefly mitochondria (1.5 μg proteins) were respuspended in 400 μl swelling buffer containing 200 nM MTG for 15 min at room temperature. The organelles were immediately analyzed on the cytometer with the CellQuest Pro software (Becton Dickinson). MTG fluorescence was collected in the FL-1 channel (530+/−15 nm) and analyzed in logarithmic amplifier mode, using the PMT at a voltage adjusted to 907. Data from 20,000 gated mitochondria were recorded and analyzed.
# Mitochondrial size was analyzed through the light scattered by the organelles at low angle using the Forward scatter (FSC) photodiode. Signals were collected using the E-00 setting, with a logarithmic amplification gain of 5.41. Mitochondrial structure was evaluated by the light scattered in the perpendicular direction. It was assessed by the sensitive Side scatter (SSC) photomultiplier tube (PMT), using a voltage of 581, and a linear amplification gain adjusted to 4.27. The morphological changes related to swelling of purified mitochondria were monitored by the increase in mitochondrial size (FSC) and the decrease in the organelle structure (SSC) using the CellQuest Pro software. The FSC/SSC ratio was calculated by the FCS Assistant software and permitted to integrate both variations in size and structure into only one parameter.
# Real-time experiments were performed on mitochondrial samples containing 1.5 μg proteins in 800 μl (=2 ng/µl) of swelling buffer. Samples were acquired on the flow cytometer for 5 minutes to record basal morphological criteria. Then reagents were added to samples, and variations in light scattering were recorded for the following 15 minutes. The sample flow rate was settled to 12 μl+/−3 μl/min for both fixed- and real-time analyses.
# Swelling curves were obtained after plotting FSC or SSC parameters versus time, and division of the time scale into discrete periods of 1 minute. The mean FSC and SSC of mitochondria from every period were calculated by the CellQuest Pro software, and were exported into the Microsoft Excel software.
# [3] = test system: purified mouse liver mitochondria; assay: FCM analysis of PTP-dependant and PTP-independent MMP after pre-treatment with inhibitors; format: biochemical; conditions: for effect on alamethicin induced MMP (in words): 50 μM BA, 10 μM CsA or 10 μM Ruthenium red, then alamethicin 5 μg/ml
# Description: Mitochondrial Membrane Permeabilization (MMP) was induced by 1-30 μM Calcium (CaCl2, MERCK), and 5 μg/ml Alamethicin (SIGMA). Ruthenium Red (SIGMA) and the PTP inhibitor Cyclosporine A (CSA, BIOMOL) were added at 10 μM 4 minutes before the addition of the MMP-inducing agents. The uncoupler carbonyl cyanide m-chlorophenylhydrazone (mClCCP, SIGMA) was used at 20 μM to completely collapse A m.
# Fixed-time analyses were performed on mitochondrial samples containing 10 μg proteins in 100 μl of swelling buffer. Samples were submitted to MPP-inducing reagents for 30 min at 25° C. Samples were immediately analyzed by flow cytometry, and data from 20.000 mitochondria were recorded. The percentage of specific swelling determined on forward scatter was calculated as follows;
# Fixed-time detection of ΔΨm was performed on mitochondrial samples containing 10 μg proteins in 100 μl of swelling buffer. Samples were submitted to MPT-inducing drugs for 15 min at 25° C., and JC-1 was added at 800 nM for 15 min at 37° C. in the dark. Samples were immediately analyzed by flow cytometry, and data from 20.000 mitochondria (gated on FSC-SSC parameters) were recorded. This assay permitted to quantify the percentage of highly energized mitochondria (with both orange and green fluorescence) and depolarized mitochondria (with green fluorescence only) as depicted in part C2 of FIG. 1.
# Mitochondria were exposed 5 minutes to 50 μM BA, 10 μM Csa, or 10 μM Ruthenium red followed by 30 min treatment with Ca^2+ (30 μM) or alamethicin (5 μg/ml). Then, mitochondria were subjected to FCM analysis of ΔΨm (JC-1 orange fluorescence) and SSC (Mean+/−SD; n=3).
# [4] = test system: mammary adenocarcinoma MDA-MD-231 cells; assay: Apoptosis by FACS analysis (ΔΨm loss and cell membrane permeability), adenocarcinoma cells; format: cell-based, human; conditions: Adenocarcinoma MDA-MD231 cells; 24 hours incubation with 5 to 20 μM peptide
# [5] = test system: Jurkat cells; assay: Apoptosis by FACS analysis (ΔΨm loss and cell membrane permeability), Jurkat cells; format: cell-based, human; conditions: 24 hours incubation with 5 to 20 μM peptide
# [6] = test system: HeLa cells; assay: Apoptosis of HeLa cells by fluorescent microscopy or FACS; format: cell-based, human; conditions: 5 or 10 μM, 24 or 48 h
# Description: Characterization of apoptosis induced on cultured human cells by treatment with MMP inducing peptides. The example shown relates to peptide seq. ID no 3 […]. […] The peptide was then tested on cell: the HeLa cells in exponential growth phase were treated with peptide or mock treated, then analyzed by fluorescent microscopy or FACS to ascertain apoptosis.
# Caspase-3 activation was performed using a fluorescent inhibitor of caspase-3 (FLICA, FAM-DEVD-FMK) from the CaspaTag™ kit (Intergen). The loss of plasma membrane integrity occurring during apoptosis of HeLa cells was determined by 7-Amino Actinomycin D. (7-AAD) incorporation (SIGMA). […] 7-AAD was added to cells at 37° C. for 15 min. Cells were trypsinized, resuspended in PBS and immediately acquired on the FACSCalibur. FAM-DEVD-FMK related fluorescence was detected using the Fl-1 channel. 7-AAD fluorescence was collected in the Fl-3 channel (>650 nm).
# HeLa cells were stained by […] for 15 minutes and observe d using a DM IRB inverted fluorescence microscope (Leica).
# HeLa cells were incubated for 24 or 48 h with 5 or 10 μM of peptide Seq. ID no 3 or left untreated. A. Cells were then stained with JC-1 and Hoechst dyes. […] B. Fluorescence microscopy of the cells, after 24 hours incubation with or without 5 μM peptide and staining with JC-1 dye. […]
# [7] = 50 μM BA or 10 μM CsA 5 min, then 30 μM Ca2+ 30 min
molecule,measurement,setting,value
"N#CC(C#N)=NNc1cccc(Cl)c1 [CCCP, carbonyl cyanide meta-chlorophenylhydrazone]",changes of JC-1 orange fluorescence (ΔΨm) (in words),[1],rapid decrease in JC-1 orange fluorescence
same,changes of mitochondrial size (FSC) and structure (SSC) (in words),[2],low but significant granularity (SSC) decrease without detectable size (FSC) changes
[Ca+2] [Calcium],changes of JC-1 orange fluorescence (ΔΨm) (in words),[1],decrease in JC-1 orange fluorescence
same,changes of mitochondrial size (FSC) and structure (SSC) (in words),[2],dose-dependent SSC decrease and FSC increase
N.N.N.N.N.N.N.N.N.N.N.N.N.N.[Cl-].[Cl-].[Cl-].[Cl-].[Cl-].[Cl-].[O-2].[O-2].[Ru+3].[Ru+3].[Ru+4] [Ruthenium red],inhibition of Ca2+ induced SSC decrease,"[3]; 10 μM Ruthenium red 5 min, then 30 μM Ca2+ 30 min",80%
same,inhibition of Ca2+ induced ΔΨm loss,"[3]; 10 μM Ruthenium red 5 min, then 30 μM Ca2+ 30 min, JC-1 orange fluorescence",80%
same,effect on alamethicin induced MMP (in words),[3],not affected
CC(=O)NC(C)(C)C(=O)N1CCC[C@H]1C(=O)NC(C)(C)C(=O)N[C@@H](C)C(=O)NC(C)(C)C(=O)N[C@@H](C)C(=O)N[C@@H](CCC(N)=O)C(=O)NC(C)(C)C(=O)N[C@H](C(=O)NC(C)(C)C(=O)NCC(=O)N[C@@H](CC(C)C)C(=O)NC(C)(C)C(=O)N1CCC[C@H]1C(=O)N[C@H](C(=O)NC(C)(C)C(=O)NC(C)(C)C(=O)N[C@@H](CCC(=O)O)C(=O)N[C@@H](CCC(N)=O)C(=O)N[C@H](CO)Cc1ccccc1)C(C)C)C(C)C [alamethicin] (Ac-[Aib]P[Aib]A[Aib]AQ[Aib]V[Aib]GL[Aib]PV[Aib][Aib]EQ[Phe(ol)]),changes of JC-1 orange fluorescence (ΔΨm) (in words),[1],decrease in JC-1 orange fluorescence
same,changes of mitochondrial size (FSC) and structure (SSC) (in words),[2],simultaneous FSC increase and SSC decrease
CO[C@H](C/C=C\C=C\CC/C=C/C[C@H](C)/C=C/C(=C\C(=O)O)CC(=O)O)/C(C)=C\C=C(/C)C(=O)O [bongkrekic acid],effect on Ca2+ induced SSC decrease (in words),[3]; [7],partly affect
same,effect on Ca2+ induced ΔΨm loss (in words),[3]; [7],strongly reduces
same,effect on alamethicin induced MMP (in words),[3],not affected
EHWSYWLRPG-GGGGS,% of apoptotic cells,[4],7%
same,% of apoptotic cells,[5],8%
same,induction of MMP / activity on isolated mitochondria (in words),[2],not active on mitochondria
EHWSYWLRPGGGGGSLLFIHFRIGCRHSRIG [SEQ ID N^o 11],% of apoptotic cells,[4],92%
same,% of apoptotic cells,[5],18%
GG*CRGDMFG*CG,induction of MMP / activity on isolated mitochondria (in words),[2],not found inducing MMP
RKKRRQRRRCGGLANKKGAWLDSTKATRYLVKTESWILRN [SEQ ID N^o 4],apoptosis of HeLa cells (in words),[6],mitochondrio-toxic activity
